# From the supplement of paper PMC13380429
# What was measured:
# Conditions in all cases: 72 h
# Caco-2 [1] = assay: cell viability relative to DMSO; higher = less toxic
# Calu-3 [2] = assay: as above
# HepG2 [3] = assay: as above
# U2OS [4] = assay: as above
# Vero E6 [5] = assay: as above
# Caco-2 [6] = assay: relative viability EC50 (midpoint between 100% and the lowest measured viability); higher = less toxic
# Calu-3 [7] = assay: as above
# HepG2 [8] = assay: as above
# U2OS [9] = assay: as above
# Vero E6 [10] = assay: as above
# Caco-2 [11] = assay: drug sensitivity score (DSS) for viability; higher = more toxic; extreme values may be limits of the assay
# Calu-3 [12] = assay: as above
# HepG2 [13] = assay: as above
# U2OS [14] = assay: as above
# Vero E6 [15] = assay: as above
Structure (SMILES),cell viability (Caco-2 [1]; 1 nM) [%],cell viability (Caco-2 [1]; 10 nM) [%],cell viability (Caco-2 [1]; 100 nM) [%],cell viability (Caco-2 [1]; 1000 nM) [%],cell viability (Caco-2 [1]; 10000 nM) [%],cell viability (Calu-3 [2]; 1 nM) [%],cell viability (Calu-3 [2]; 10 nM) [%],cell viability (Calu-3 [2]; 100 nM) [%],cell viability (Calu-3 [2]; 1000 nM) [%],cell viability (Calu-3 [2]; 10000 nM) [%],cell viability (HepG2 [3]; 1 nM) [%],cell viability (HepG2 [3]; 10 nM) [%],cell viability (HepG2 [3]; 100 nM) [%],cell viability (HepG2 [3]; 1000 nM) [%],cell viability (HepG2 [3]; 10000 nM) [%],cell viability (U2OS [4]; 1 nM) [%],cell viability (U2OS [4]; 10 nM) [%],cell viability (U2OS [4]; 100 nM) [%],cell viability (U2OS [4]; 1000 nM) [%],cell viability (U2OS [4]; 10000 nM) [%],cell viability (Vero E6 [5]; 1 nM) [%],cell viability (Vero E6 [5]; 10 nM) [%],cell viability (Vero E6 [5]; 100 nM) [%],cell viability (Vero E6 [5]; 1000 nM) [%],cell viability (Vero E6 [5]; 10000 nM) [%],relative viability EC50 (Caco-2 [6]) [µM],relative viability EC50 (Calu-3 [7]) [µM],relative viability EC50 (HepG2 [8]) [µM],relative viability EC50 (U2OS [9]) [µM],relative viability EC50 (Vero E6 [10]) [µM],drug sensitivity score (Caco-2 [11]),drug sensitivity score (Calu-3 [12]),drug sensitivity score (HepG2 [13]),drug sensitivity score (U2OS [14]),drug sensitivity score (Vero E6 [15])
O=c1[nH]c2ccccc2n1CCCN1CCN(C(c2ccccc2)c2ccccc2)CC1 [oxatomide],117,98.6,99.1,112,83.7,107,96.1,105,99.2,101,97.7,104,114,81.7,92.2,100,102,94.1,97.1,106,106,93.1,99.9,91.7,95.6,> 10,> 10,> 10,> 10,> 10,0.1,0,1.9,0,0
Cc1cc(C(C)(C)C)c(O)c(C)c1CC1=NCCN1 [oxymetazoline],97.6,93.7,80.4,96.6,83.6,92.1,92.3,94.5,101,107,103,87.9,104,84,88,100,99.5,98.9,100,96.4,100,106,102,95.7,98.7,> 10,> 10,> 10,> 10,> 10,0.9,0,1.5,0,0
CCC[C@H](N[C@@H](C)C(=O)N1[C@H](C(=O)O)C[C@@H]2CCCC[C@@H]21)C(=O)O [perindoprilat],103,93.9,107,96.8,138,100,96.1,90.6,103,93.2,104,96.3,103,105,96.5,95.2,98.5,94.6,105,92.2,104,104,100,95.3,97.8,> 10,> 10,> 10,> 10,> 10,0,0,0,0,0
CC(C)NCC(O)c1ccc2ccccc2c1 (stereo not given) [pronethalol],89.8,97.7,87.4,90.8,93.1,91.1,99,101,93.8,93.8,105,91.6,104,87,106,98.5,105,97.7,102,95.5,112,106,100,94.3,98.7,> 10,> 10,> 10,> 10,> 10,0,0,0,0,0
Cc1oc(=O)oc1CN1CCN(c2cc3c(cc2F)c(=O)c(C(=O)O)c2n3C(C)S2)CC1 (stereo not given) [prulifloxacin],94.8,91.6,120,103,97.8,104,95.8,99.4,96.2,97.3,107,112,110,106,97.2,95.8,99.8,100,95.7,100,102,111,115,94.5,97.3,> 10,> 10,> 10,> 10,> 10,0,0,0,0,0
CC(C)[C@H](CO)Nc1nc(Nc2ccc(C(=O)O)c(Cl)c2)c2ncn(C(C)C)c2n1 [purvalanol-B],89.4,91.9,103,96.8,98.3,111,101,106,114,95.5,93.5,99.2,99.1,98.4,98.9,97.1,96.1,101,103,107,94,96.4,95.9,94.9,103,> 10,> 10,> 10,> 10,> 10,0,0,0,0,0
Cc1ncc(CO)c(C=O)c1O [pyridoxal],114,104,104,112,92.1,105,91.4,99.9,99.7,118,91,81.7,102,94.1,80,98.6,95.7,103,103,99.9,102,92.6,96,94.4,102,> 10,> 10,> 10,> 10,> 10,0,0,1.3,0,0
